Results: PubChem BioAssay (NCI)
Where “and” joins values, the source holds several entries; their conditions need not be identical. Equal entries are not always repeated.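 48-hour exposure; five concentrations; linearly interpolated endpoints. At the GI50, growth is halved. TGI: total growth inhibition.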

Experiments:
Experiment in all cases: growth of human tumour cells (NCI), 48 h
HOP-62 NSCLC = system: HOP-62 NSCLC
SK-MEL-28 melanoma = system: SK-MEL-28 melanoma
HCT-116 colon = system: HCT-116 colon
SN12C renal = system: SN12C renal
A549 NSCLC = system: A549 NSCLC
SR leukemia = system: SR leukemia
SK-OV-3 ovarian = system: SK-OV-3 ovarian
EKVX NSCLC = system: EKVX NSCLC
SK-MEL-2 melanoma = system: SK-MEL-2 melanoma
HCC-2998 colon = system: HCC-2998 colon

| SMILES | GI50 (HOP-62 NSCLC) | TGI (HOP-62 NSCLC) | GI50 (SK-MEL-28 melanoma) | TGI (SK-MEL-28 melanoma) | GI50 (HCT-116 colon) | TGI (HCT-116 colon) | GI50 (SN12C renal) | TGI (SN12C renal) | GI50 (A549 NSCLC) | TGI (A549 NSCLC) | GI50 (SR leukemia) | TGI (SR leukemia) | GI50 (SK-OV-3 ovarian) | TGI (SK-OV-3 ovarian) | GI50 (EKVX NSCLC) | TGI (EKVX NSCLC) | GI50 (SK-MEL-2 melanoma) | TGI (SK-MEL-2 melanoma) | GI50 (HCC-2998 colon) | TGI (HCC-2998 colon) |
| --- | --- | --- | --- | --- | --- | --- | --- | --- | --- | --- | --- | --- | --- | --- | --- | --- | --- | --- | --- | --- |
| O=C(NCCN1CCNCC1)c1ccc(Nc2nc3ccccc3c3occc23)cc1 | 10.3 µM | 22.4 µM | 2.57 µM | 8.45 µM | 4.11 µM | 15.8 µM | 18.2 µM | 34.9 µM | 17.5 µM | 36.8 µM | 25 µM | 43.8 µM | 19.3 µM | 47.5 µM | 9.45 µM | 27.2 µM | 18.3 µM | 36.4 µM | 1.79 µM | 3.9 µM |
| Cc1ccccc1/C=C/C(=O)c1ccccc1 | – | 30.8 µM | – | 33.9 µM | – | 31 µM | – | > 10 µM | – | 65.1 µM | – | > 100 µM | – | 67.3 µM | – | 33.7 µM | – | > 10 µM | – | 34.5 µM |
| Cc1ccc2oc(=O)c(-c3ccccc3)nc2c1 | – | > 100 µM | – | > 100 µM | – | > 100 µM | – | > 100 µM | – | > 100 µM | – | > 100 µM | – | – | – | > 100 µM | – | 43.8 µM | – | 41.9 µM |
| COc1ccc(F)c(F)c1C(=O)c1cnc(NC2CCN(S(C)(=O)=O)CC2)nc1N | 0.959 µM and 0.45 µM | > 23.4 µM and 7.93 µM | 1.06 µM and 0.412 µM | > 27.2 µM and 4.78 µM | 0.257 µM and 0.183 µM | > 100 µM | 0.94 µM and 0.477 µM | > 100 µM | 0.422 µM and 0.397 µM | > 26.5 µM | 0.188 µM and 0.114 µM | – | 4.35 µM and 4.24 µM | > 100 µM | 0.923 µM | 7.73 µM | 1.07 µM and 1.15 µM | 2.96 µM and 3.48 µM | 0.961 µM and 0.987 µM | > 26.8 µM and 5.65 µM |
| Cc1cccc(C)c1N1C(=O)C(=O)C(c2nc3ccccc3s2)/C(=N/NC(=O)NN)C1=O (stereo unspecified) | – | > 100 µM | – | > 100 µM | – | > 100 µM | – | > 100 µM | – | > 100 µM | – | > 100 µM | – | > 100 µM | – | > 100 µM | – | > 100 µM | – | > 100 µM |
| CN1c2ccccc2SC2C(c3ccccc3)=NOC21 (stereo unspecified) | – | > 100 µM | – | > 100 µM | – | 60.7 µM | – | > 100 µM | – | > 100 µM | – | > 100 µM | – | > 100 µM | – | > 100 µM | – | 73.9 µM | – | > 100 µM |
| CCN(CC)c1ccc(/C=C/C2=[N+](C)c3ccccc3C2(C)C)c(C)c1 | 0.0983 µM | 1.74 µM | 0.151 µM | 2.73 µM | < 0.02 µM | 3.82 µM | 0.0738 µM | 1.24 µM | 0.0964 µM | 14.1 µM | 0.0275 µM | 1.71 µM | 0.0546 µM | 0.21 µM | 0.0466 µM | 7.86 µM | 0.0792 µM | 0.582 µM | 0.102 µM | 5.27 µM |
| CC(C)(C)OC(=O)NC1CCCC1=O (stereo unspecified) | – | > 100 µM | – | > 100 µM | – | > 100 µM | – | > 100 µM | – | > 100 µM | – | > 100 µM | – | > 100 µM | – | > 100 µM | – | > 100 µM | – | > 100 µM |
| O=C1CNS(=O)(=O)N1 | – | > 100 µM | – | > 100 µM | – | > 100 µM | – | > 100 µM | – | > 100 µM | – | > 100 µM | – | > 100 µM | – | > 100 µM | – | > 100 µM | – | > 100 µM |
| [2H]c1nc(=Nc2cc(NC(=O)C=C)c(N(C)CCN(C)C)cc2OC)[nH]c(-c2cn(C([2H])([2H])[2H])c3ccccc23)c1[2H] | 4.25 µM | 20.7 µM | 1.78 µM | 3.33 µM | 1.48 µM | 2.83 µM | 1.18 µM | 2.71 µM | 1.14 µM | 7.64 µM | 1.23 µM | 4.02 µM | – | – | 0.853 µM | 11.5 µM | 1.73 µM | 3.65 µM | 1.44 µM | 2.8 µM |
| CCn1c(-c2nonc2N)nc2ccncc21 | > 25 µM | > 25 µM | > 25 µM | > 25 µM | > 25 µM | > 25 µM | > 25 µM | > 25 µM | > 25 µM | > 25 µM | > 25 µM | > 25 µM | > 25 µM | > 25 µM | > 25 µM | > 25 µM | > 25 µM | > 25 µM | > 25 µM | > 25 µM |
| COc1c(O)c(OC)c2oc(-c3ccc(O)cc3)c(OC)c(=O)c2c1O | – | 94.9 µM | – | > 100 µM | – | > 100 µM | – | > 100 µM | – | > 100 µM | – | > 100 µM | – | 53.7 µM | – | > 100 µM | – | > 100 µM | – | > 100 µM |
| CN(C)C(=S)Nc1nnc(Nc2ccccc2)s1 | – | > 100 µM | – | > 100 µM | – | > 100 µM | – | > 100 µM | – | > 100 µM | – | > 100 µM | – | > 100 µM | – | > 100 µM | – | > 100 µM | – | > 100 µM |
| CC1(O)CCn2c(=O)c3cc4ccccc4cc3c(=O)n2C1O (stereo unspecified) | – | > 100 µM | – | > 100 µM | – | > 100 µM | – | > 100 µM | – | > 100 µM | – | > 100 µM | – | > 100 µM | – | > 100 µM | – | > 100 µM | – | > 100 µM |
| Nc1cc(-c2ccc(Cl)cc2)nn1-c1nnc(/C=C/c2ccco2)c(=O)[nH]1 | 6.83 µM | 60.1 µM | 6.42 µM | 61 µM | 3.15 µM | 15.8 µM | 18.5 µM | > 100 µM | 3.46 µM | 22.2 µM | 2.53 µM | > 100 µM | 6.09 µM | > 86.2 µM | 4.11 µM | > 55.7 µM | 19 µM | > 88.3 µM | 6.6 µM | > 84.5 µM |
| CCOC(OC1=C(C#N)CCCC1)C(CC)[Se]c1ccccc1 (stereo unspecified) | – | > 100 µM | – | 61.8 µM | – | 28.6 µM | – | 36.9 µM | – | > 100 µM | – | 31 µM | – | > 100 µM | – | 69.2 µM | – | 80.8 µM | – | > 100 µM |
| O=S1CSSC1 | – | 98.6 µM | – | 59.8 µM | – | 31.7 µM | – | 24.4 µM | – | > 100 µM | – | 47.2 µM | – | 53.3 µM | – | 77.8 µM | – | 33.9 µM | – | 45.8 µM |
| CCCCCCCCCCCC1CC(=O)NCCCN(C)CCCCN(C)CCCN1C (stereo unspecified) | – | 3.04 µM | – | 3.09 µM | – | 2.89 µM | – | 3.14 µM | – | 3.16 µM | – | 0.605 µM | – | 3.2 µM | – | 3.2 µM | – | 3.16 µM | – | 3.21 µM |
